Here are results for 20 molecules from patent US11174268B2, “Benzenesulfonamide compouds and their use as therapeutic agents” (Xenon Pharmaceuticals Inc., priority 2016, dated 2021).

Where two headings read alike, the source gives them in different places.

One data set has as its target NaV1.5 (Homo sapiens (Human), UniProt Q14524). In words: Sodium Influx Assay (Flux), NaV1.5.
The target in another data set is NaV1.1 (Homo sapiens (Human), UniProt P35498). In words: Sodium Influx Assay (Flux), NaV1.1.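 Also: channels co-expressed with human β1 subunit and held open by modulators, cells exposed to compounds for one hour at room temperature, IC50 from percent inhibition of influx.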 Conditions: Trex HEK293 cells, ANG2 dye, inactivated state. The class given is cell-based.
The target in a further data set is NaV1.6 (Homo sapiens (Human), UniProt Q9UQD0). In words: Sodium Influx Assay (Flux), NaV1.6.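 Also: Tetracycline-induced cells, compounds applied for one hour at room temperature with modulators holding channels open, IC50 from percent inhibition of sodium influx.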 The format is cell-based. Particulars: Trex HEK293 cells, ANG2 dye, inactivated state.
Setting [1] is: read-out: Flux NaV1.5 IC50, Trex HEK293 cells, ANG2 dye, inactivated state.

Chain of NaV1.5 (Q14524 other isoform, or with tags, fused parts or gaps): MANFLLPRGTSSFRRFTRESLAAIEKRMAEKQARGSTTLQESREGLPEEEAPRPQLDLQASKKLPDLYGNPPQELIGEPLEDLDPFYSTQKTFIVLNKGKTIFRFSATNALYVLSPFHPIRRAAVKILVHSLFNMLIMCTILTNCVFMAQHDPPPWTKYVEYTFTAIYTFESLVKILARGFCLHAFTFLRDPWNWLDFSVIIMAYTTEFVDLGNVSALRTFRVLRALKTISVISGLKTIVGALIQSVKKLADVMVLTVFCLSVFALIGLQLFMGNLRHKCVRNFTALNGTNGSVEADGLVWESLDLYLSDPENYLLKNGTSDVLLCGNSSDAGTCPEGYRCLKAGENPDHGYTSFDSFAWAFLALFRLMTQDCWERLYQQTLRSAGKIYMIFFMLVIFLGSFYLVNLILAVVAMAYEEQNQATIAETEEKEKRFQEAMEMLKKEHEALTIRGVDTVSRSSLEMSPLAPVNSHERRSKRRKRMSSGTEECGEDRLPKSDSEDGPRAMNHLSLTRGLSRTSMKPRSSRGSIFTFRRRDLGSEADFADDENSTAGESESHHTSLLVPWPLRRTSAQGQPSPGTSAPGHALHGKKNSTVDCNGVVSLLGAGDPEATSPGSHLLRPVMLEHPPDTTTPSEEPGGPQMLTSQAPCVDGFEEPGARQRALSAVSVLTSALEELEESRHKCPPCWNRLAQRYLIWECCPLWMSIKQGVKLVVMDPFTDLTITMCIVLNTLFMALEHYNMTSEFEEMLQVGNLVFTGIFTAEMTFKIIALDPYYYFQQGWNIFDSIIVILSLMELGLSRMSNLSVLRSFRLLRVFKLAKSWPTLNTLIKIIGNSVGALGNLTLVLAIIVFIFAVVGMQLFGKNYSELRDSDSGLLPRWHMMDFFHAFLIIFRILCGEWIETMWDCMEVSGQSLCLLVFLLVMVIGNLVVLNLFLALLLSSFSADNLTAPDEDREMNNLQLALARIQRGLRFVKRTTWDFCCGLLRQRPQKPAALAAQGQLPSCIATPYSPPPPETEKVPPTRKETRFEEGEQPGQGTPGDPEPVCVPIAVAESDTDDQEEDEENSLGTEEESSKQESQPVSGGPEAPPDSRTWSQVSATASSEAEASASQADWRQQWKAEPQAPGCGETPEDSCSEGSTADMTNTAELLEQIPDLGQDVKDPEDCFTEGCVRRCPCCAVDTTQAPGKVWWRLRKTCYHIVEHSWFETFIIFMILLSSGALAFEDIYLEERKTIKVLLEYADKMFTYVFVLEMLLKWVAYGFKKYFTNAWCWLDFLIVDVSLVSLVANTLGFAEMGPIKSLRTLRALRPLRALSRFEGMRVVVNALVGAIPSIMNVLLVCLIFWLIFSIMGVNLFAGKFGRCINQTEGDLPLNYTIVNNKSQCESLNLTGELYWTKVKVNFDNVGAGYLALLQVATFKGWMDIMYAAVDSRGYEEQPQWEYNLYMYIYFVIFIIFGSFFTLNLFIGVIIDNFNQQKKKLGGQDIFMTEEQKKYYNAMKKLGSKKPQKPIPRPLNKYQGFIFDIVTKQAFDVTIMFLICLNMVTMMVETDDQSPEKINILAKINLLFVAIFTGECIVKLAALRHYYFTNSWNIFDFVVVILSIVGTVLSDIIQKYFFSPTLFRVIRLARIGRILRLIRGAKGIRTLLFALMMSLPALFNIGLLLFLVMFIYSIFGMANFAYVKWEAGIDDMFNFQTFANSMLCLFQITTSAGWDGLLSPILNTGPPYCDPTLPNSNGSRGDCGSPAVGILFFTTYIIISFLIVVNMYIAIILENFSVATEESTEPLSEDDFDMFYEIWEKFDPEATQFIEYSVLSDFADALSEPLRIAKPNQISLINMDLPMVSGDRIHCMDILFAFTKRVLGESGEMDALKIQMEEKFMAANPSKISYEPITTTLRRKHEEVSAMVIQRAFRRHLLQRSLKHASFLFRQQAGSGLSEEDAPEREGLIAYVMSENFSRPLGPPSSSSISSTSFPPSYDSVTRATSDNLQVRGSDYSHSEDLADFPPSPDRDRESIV

For `Cc1cc(NS(=O)(=O)c2c(F)cc(NCc3c(F)ccc(F)c3CN3CCC3)cc2F)no1` [Example 216, 4-((2-(azetidin-1-ylmethyl)-3,6-difluorobenzyl)amino)-2,6-difluoro-N-(5-methylisoxazol-3-yl)benzenesulfonamide 2,2,2-trifluoroacetate], the half-maximal inhibitory concentration (IC50) at NaV1.5 (setting [1]) stood at 30 µM; against NaV1.1 it was 30 µM; against NaV1.6, 3.12 µM.

On to `CN(C)Cc1ccccc1C1(Nc2cc(F)c(S(=O)(=O)Nc3cscn3)cc2Cl)CC1` [Example 217, 5-chloro-4-((1-(2-((dimethylamino)methyl)phenyl)cyclopropyl)-amino)-2-fluoro-N-(thiazol-4-yl)benzenesulfonamide 2,2,2-trifluoroacetate], for which the IC50 is 11.6 µM at NaV1.5 (setting [1]), 15.3 µM against NaV1.1 and 0.701 µM at NaV1.6.

For the molecule `COCc1cccc(F)c1CNc1cc(F)c(S(=O)(=O)Nc2cscn2)cc1Cl` [Example 218, 5-chloro-2-fluoro-4-((2-fluoro-6-(methoxymethyl)benzyl)amino)-N-(thiazol-4-yl)benzenesulfonamide], the IC50 on NaV1.5 (setting [1]) was 20.9 µM; on NaV1.1 it was 28.4 µM; on NaV1.6 it was 3.21 µM.

Take `Cc1cc(S(=O)(=O)Nc2ccon2)c(F)cc1NCc1c(F)cccc1CN1CCC1` [Example 219, 4-((2-(azetidin-1-ylmethyl)-6-fluorobenzyl)amino)-2-fluoro-N-(isoxazol-3-yl)-5-methylbenzenesulfonamide]: the IC50 at NaV1.5 (setting [1]) was determined as 30 µM; on NaV1.1 it was 30 µM; on NaV1.6 it was 0.28 µM.

As for `O=S(=O)(Nc1nccs1)c1cc(Cl)c(NC2(c3ccccc3F)CC2)cc1F` [Example 220, 5-chloro-2-fluoro-4-((1-(2-fluorophenyl)cyclopropyl)amino)-N-(thiazol-2-yl)benzenesulfonamide], the half-inhibitory concentration (IC50) came to 3.17 µM on NaV1.5 (setting [1]), 2.12 µM at NaV1.1 and 0.193 µM at NaV1.6.

Regarding `O=S(=O)(Nc1cscn1)c1cc(Cl)c(OC2(c3ccccc3)CC2)cc1F` [Example 221, 5-chloro-2-fluoro-4-(1-phenylcyclopropoxy)-N-(thiazol-4-yl)benzenesulfonamide], the values for the IC50 at NaV1.5 (setting [1]), at NaV1.1 and on NaV1.6 were 19 µM, 25.4 µM and 4.66 µM, respectively.

On to `CC[C@H](Nc1cc(F)c(S(=O)(=O)Nc2cscn2)cc1Cl)c1ccccc1Cl` [Example 222, (S)-5-chloro-4-((1-(2-chlorophenyl)propyl)amino)-2-fluoro-N-(thiazol-4-yl)benzenesulfonamide], for which the half-inhibitory concentration (IC50) stood at 8.35 µM on NaV1.5 (setting [1]), 3.99 µM at NaV1.1 and 1.93 µM against NaV1.6.

As to `C[C@H](Nc1cc(F)c(S(=O)(=O)Nc2cscn2)cc1Cl)c1cc(F)cc(F)c1` [Example 223, (S)-5-chloro-4-((1-(3,5-difluorophenyl)ethyl)amino)-2-fluoro-N-(thiazol-4-yl)benzenesulfonamide], the figures for the IC50 at NaV1.5, at NaV1.1 and at NaV1.6 were 12.2 µM, 3.74 µM and 4.23 µM, respectively.

Consider `O=S(=O)(Nc1cscn1)c1cc(Cl)c(NC2(c3ccc(F)cc3F)CC2)cc1F` [Example 224, 5-chloro-4-((1-(2,4-difluorophenyl)cyclopropyl)amino)-2-fluoro-N-(thiazol-4-yl)benzenesulfonamide], for which the concentration for half-maximal inhibition (IC50) at NaV1.5 (setting [1]) was found to be 30 µM; against NaV1.1 it was 7.76 µM; against NaV1.6 it was 5.07 µM.

As to `Cc1cccc(Cl)c1CNc1cc(F)c(S(=O)(=O)Nc2cscn2)cc1Cl` [Example 226, 5-chloro-4-((2-chloro-6-methylbenzyl)amino)-2-fluoro-N-(thiazol-4-yl)benzenesulfonamide], the IC50 was found to be 11.3 µM on NaV1.5 (setting [1]), 19.9 µM against NaV1.1 and 8.19 µM against NaV1.6.

In the case of `C[C@H](Nc1cc(F)c(S(=O)(=O)Nc2cscn2)cc1Cl)c1cc(CC(F)F)ccc1F` [Example 227, (S)-5-chloro-4-((1-(5-(2,2-difluoroethyl)-2-fluorophenyl)ethyl)amino)-2-fluoro-N-(thiazol-4-yl)benzenesulfonamide], the IC50 on NaV1.5 (setting [1]) stood at 8.6 µM; against NaV1.1, 8.78 µM; at NaV1.6, 1.25 µM.

Regarding `COCc1ccc(F)c([C@H](C)Nc2cc(F)c(S(=O)(=O)Nc3cscn3)c(F)c2)c1` [Example 228, (S)-2,6-difluoro-4-((1-(2-fluoro-5-(methoxymethyl)phenyl)ethyl)amino)-N-(thiazol-4-yl)benzenesulfonamide], the 50% inhibitory concentration (IC50) at NaV1.5 (setting [1]) amounted to 27.5 µM; against NaV1.1 it was 13.2 µM; at NaV1.6 it was 1.94 µM.

`C[C@H](Nc1cc(F)c(S(=O)(=O)Nc2cscn2)cc1Cl)c1cc(C#N)ccc1F` [Example 229, (S)-5-chloro-4-((1-(5-cyano-2-fluorophenyl)ethyl)amino)-2-fluoro-N-(thiazol-4-yl)benzenesulfonamide]: the IC50 on NaV1.5 (setting [1]) was 30 µM; at NaV1.1 it was 30 µM; at NaV1.6, 0.961 µM.

Regarding `O=S(=O)(Nc1cscn1)c1c(F)cc(NC2(c3ccccc3)CC2)cc1F` [Example 231, 2,6-difluoro-4-[(1-phenylcyclopropyl)amino]-N-thiazol-4-yl-benzenesulfonamide], the IC50 on NaV1.5 (setting [1]) stood at 30 µM; against NaV1.1 it was 17.5 µM; on NaV1.6 it was 4.21 µM.

Consider `C[C@H](Oc1cc(F)c(S(=O)(=O)Nc2cscn2)c(F)c1)c1ccccc1F` [Example 232, (S)-2,6-difluoro-4-(1-(2-fluorophenyl)ethoxy)-N-(thiazol-4-yl)benzenesulfonamide], for which the IC50 at NaV1.5 (setting [1]) is 11.2 µM; against NaV1.1, 21.2 µM; on NaV1.6, 1.75 µM.

Consider `C[C@H](Nc1cc(F)c(S(=O)(=O)Nc2cscn2)c(F)c1)c1cc(C(F)F)ccc1F` [Example 233, (S)-4-((1-(5-(difluoromethyl)-2-fluorophenyl)ethyl)amino)-2,6-difluoro-N-(thiazol-4-yl)benzenesulfonamide], for which the results for the IC50 on NaV1.5 (setting [1]), against NaV1.1 and at NaV1.6 were 12.4 µM, 3.08 µM and 0.787 µM, respectively.

Turning to `C[C@H](Nc1cc(F)c(S(=O)(=O)Nc2cscn2)cc1Cl)c1cc(O)ccc1F` [Example 234, (S)-5-chloro-2-fluoro-4-((1-(2-fluoro-5-hydroxyphenyl)ethyl)amino)-N-(thiazol-4-yl)benzenesulfonamide], the IC50 on NaV1.5 (setting [1]) was 8.67 µM; on NaV1.1 it was 4.62 µM; against NaV1.6, 0.669 µM.

In the case of `C[C@H](Nc1cc(F)c(S(=O)(=O)Nc2cscn2)cc1Cl)c1cc(OC2COC2)ccc1F` [Example 235, (S)-5-chloro-2-fluoro-4-((1-(2-fluoro-5-(oxetan-3-yloxy)phenyl)ethyl)amino)-N-(thiazol-4-yl)benzenesulfonamide], the IC50 at NaV1.5 (setting [1]) is 30 µM; on NaV1.1, 22.4 µM; at NaV1.6, 3.02 µM.

As for `C[C@H](Nc1cc(F)c(S(=O)(=O)Nc2cscn2)cc1Cl)c1cc(OCC2COC2)ccc1F` [Example 236, (S)-5-chloro-2-fluoro-4-((1-(2-fluoro-5-(oxetan-3-ylmethoxy)phenyl)ethyl)amino)-N-(thiazol-4-yl)benzenesulfonamide], the IC50 on NaV1.5 (setting [1]) came out at 30 µM; at NaV1.1, 30 µM; at NaV1.6, 3.02 µM.

Turning to `C[C@H](Nc1cc(F)c(S(=O)(=O)Nc2cscn2)cc1Cl)c1cc(OCC2(C)COC2)ccc1F` [Example 237, (S)-5-chloro-2-fluoro-4-((1-(2-fluoro-5-((3-methyloxetan-3-yl)methoxy)phenyl)ethyl)amino)-N-(thiazol-4-yl)benzenesulfonamide], the IC50 at NaV1.5 (setting [1]) stood at 30 µM; against NaV1.1, 12.5 µM; on NaV1.6 it was 3.54 µM.
